Experimental data as given in PubChem BioAssay AID330 (DTP/NCI, 2004).
Values joined by “and” are separate entries in the source; they are usually repeats but may differ in a detail not shown here. Equal entries are not always repeated. Toxic doses and inconclusive results are not listed. The calls were made as follows: active = survival T/C of 150% or more; inactive = T/C below 125% in these data.

Test system: P388 leukemia ip, CD2F1 mice, survival T/C
Test: NCI In Vivo Anticancer Drug Screen. Data for tumor model P388 Leukemia (intraperitoneal) in CD2F1 (CDF1) mice
Details: endpoint: median survival time, higher = longer survival
Procedure, shortened: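 Mice carrying the transplanted tumor received test compound or vehicle. Survival was recorded in each group, and the value is the treated-group measurement divided by that of the vehicle-treated control group.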

[1] = dose: 100.0 mg/kg/injection, schedule: Q04DX003 (ip), vehicle: saline with Tween-80
[2] = dose: 200.0 mg/kg/injection, schedule: Q04DX003 (ip), vehicle: saline with Tween-80
[3] = dose: 60.0 mg/kg/injection, schedule: Q01DX005 (ip), vehicle: Klucel (hydroxypropylcellulose) (HPC)
[4] = dose: 120.0 mg/kg/injection, schedule: Q01DX005 (ip), vehicle: Klucel (hydroxypropylcellulose) (HPC)
[5] = dose: 6.25 mg/kg/injection, schedule: Q01DX005 (ip), vehicle: Klucel (hydroxypropylcellulose) (HPC)
[6] = dose: 12.5 mg/kg/injection, schedule: Q01DX005 (ip), vehicle: Klucel (hydroxypropylcellulose) (HPC)
[7] = dose: 50.0 mg/kg/injection, schedule: Q01DX005 (ip), vehicle: saline with Tween-80
[8] = dose: 100.0 mg/kg/injection, schedule: Q01DX005 (ip), vehicle: saline with Tween-80
[9] = dose: 200.0 mg/kg/injection, schedule: Q01DX005 (ip), vehicle: saline with Tween-80
[10] = dose: 50.0 mg/kg/injection, schedule: Q01DX009 (ip), vehicle: saline with Tween-80
[11] = dose: 100.0 mg/kg/injection, schedule: Q01DX009 (ip), vehicle: saline with Tween-80
[12] = dose: 200.0 mg/kg/injection, schedule: Q01DX009 (ip), vehicle: saline with Tween-80
[13] = dose: 50.0 mg/kg/injection, schedule: Q01DX009 (ip), vehicle: Klucel (hydroxypropylcellulose) (HPC)
[14] = dose: 100.0 mg/kg/injection, schedule: Q01DX009 (ip), vehicle: Klucel (hydroxypropylcellulose) (HPC)
[15] = dose: 50.0 mg/kg/injection, schedule: Q01DX005 (ip), vehicle: Klucel (hydroxypropylcellulose) (HPC)
[16] = dose: 100.0 mg/kg/injection, schedule: Q01DX005 (ip), vehicle: Klucel (hydroxypropylcellulose) (HPC)
[17] = dose: 200.0 mg/kg/injection, schedule: Q01DX005 (ip), vehicle: Klucel (hydroxypropylcellulose) (HPC)
[18] = dose: 60.0 mg/kg/injection, schedule: Q01DX005 (ip), vehicle: saline with Tween-80
[19] = dose: 120.0 mg/kg/injection, schedule: Q01DX005 (ip), vehicle: saline with Tween-80
[20] = dose: 240.0 mg/kg/injection, schedule: Q01DX005 (ip), vehicle: saline with Tween-80

Measured: T/C

Clc1ccc2c(NCCCCCCCCNc3c4ccccc4nc4cc(Cl)ccc34)c3ccccc3nc2c1
inactive: dose: 0.63 mg/kg/injection, schedule: Q01DX009 (ip), vehicle: other 112 % of control | dose: 1.25 mg/kg/injection, schedule: Q01DX009 (ip), vehicle: other 108 % of control | dose: 2.5 mg/kg/injection, schedule: Q01DX009 (ip), vehicle: other 110 % of control | dose: 3.75 mg/kg/injection, schedule: Q01DX009 (ip), vehicle: other 108 % of control | dose: 5.0 mg/kg/injection, schedule: Q01DX009 (ip), vehicle: other 112 % of control | dose: 7.5 mg/kg/injection, schedule: Q01DX009 (ip), vehicle: other 110 % of control | dose: 10.0 mg/kg/injection, schedule: Q01DX009 (ip), vehicle: other 110 % of control | dose: 15.0 mg/kg/injection, schedule: Q01DX009 (ip), vehicle: other 112 % of control | dose: 20.0 mg/kg/injection, schedule: Q01DX009 (ip), vehicle: other 120 % of control

O=C(O)CCC(=O)c1ccc(Br)cc1
inactive: [1] 109 % of control | [2] 104 % of control | dose: 400.0 mg/kg/injection, schedule: Q04DX003 (ip), vehicle: saline with Tween-80 109 % of control

CC(=O)OCCCn1nc(COC(N)=O)c2c1CC(C)CC2=O (configuration not stated)
inactive: [3] 101 % of control | [4] 99 % of control | dose: 240.0 mg/kg/injection, schedule: Q01DX005 (ip), vehicle: Klucel (hydroxypropylcellulose) (HPC) 100 % of control

CCCCN(CCCC)c1ccc(C(=N)c2ccc(N(CCCC)CCCC)cc2)cc1
inactive: [5] 108 % of control | [6] 108 % of control | dose: 25.0 mg/kg/injection, schedule: Q01DX005 (ip), vehicle: Klucel (hydroxypropylcellulose) (HPC) 117 % of control

COc1ccc2c(c1)C1(C)C(=O)OC(C2=O)C1C (configuration not stated)
inactive: dose: 50.0 mg/kg/injection, schedule: Q01DX001 (ip), vehicle: Klucel (hydroxypropylcellulose) (HPC) 104 % of control | dose: 100.0 mg/kg/injection, schedule: Q01DX001 (ip), vehicle: Klucel (hydroxypropylcellulose) (HPC) 99 % of control | dose: 200.0 mg/kg/injection, schedule: Q01DX001 (ip), vehicle: Klucel (hydroxypropylcellulose) (HPC) 114 % of control

CC(=O)NC1C(NNC(=O)c2ccncc2)OC(CO)C(O)C1O (configuration not stated)
inactive: dose: 50.0 mg/kg/injection, schedule: Q01DX005 (ip), vehicle: saline 100 % of control | dose: 100.0 mg/kg/injection, schedule: Q01DX005 (ip), vehicle: saline 96 % of control | dose: 200.0 mg/kg/injection, schedule: Q01DX005 (ip), vehicle: saline 104 % of control

Cn1cc2c(cc1=O)-c1nc3ccccc3c3ccnc(c13)C2=O
inactive: dose: 1.25 mg/kg/injection, schedule: Q01DX005 (ip), vehicle: other 96 % of control | dose: 2.5 mg/kg/injection, schedule: Q01DX005 (ip), vehicle: other 97 % of control | dose: 5.0 mg/kg/injection, schedule: Q01DX005 (ip), vehicle: other 92 % of control | dose: 10.0 mg/kg/injection, schedule: Q01DX005 (ip), vehicle: other 90 % of control

CC(O)C(NC(=O)SCc1ccccc1)C(=O)O (configuration not stated)
inactive: [7] 101 % of control | [8] 90 % of control | [9] 92 % of control

N#CC1C(=O)NC(=O)C(C#N)C12CCCCC2 (configuration not stated)
inactive: dose: 50.0 mg/kg/injection, schedule: Q04DX003 (ip), vehicle: saline with Tween-80 105 % of control | [1] 100 % of control | [2] 105 % of control

CCCCCCC(=O)/C=C/c1cccc(OCc2ccc(Cl)cc2)c1
inactive: [10] 101 % of control | [11] 93 % of control | [12] 101 % of control

COC1/C=C\OC2(C)Oc3c(C)c(O)c4c(O)c(c(/C=N/N(Cc5ccccc5)C56CC7CC(CC(C7)C5)C6)c(O)c4c3C2=O)NC(=O)/C(C)=C\C=C\C(C)C(O)C(C)C(O)C(C)C(OC(C)=O)C1C (configuration not stated)
inactive: [10] 102 % of control | [11] 100 % of control

COC1=CC(=O)C(Cc2ccc(OC)cc2)=CC1=O
inactive: dose: 2.5 mg/kg/injection, schedule: Q01DX009 (ip), vehicle: saline with Tween-80 100 % of control | dose: 5.0 mg/kg/injection, schedule: Q01DX009 (ip), vehicle: saline with Tween-80 100 % of control | dose: 10.0 mg/kg/injection, schedule: Q01DX009 (ip), vehicle: saline with Tween-80 100 % of control

Cc1cc(NC(=O)C(=O)C(C#N)c2cccc(Cl)c2)no1 (configuration not stated)
inactive: [7] 100 % of control | [8] 101 % of control | [9] 108 % of control

C=C(CN(C)C)C(=O)c1ccc(Oc2ccccc2)cc1
inactive: dose: 0.93 mg/kg/injection, schedule: Q01DX005 (ip), vehicle: saline 104 % of control | dose: 1.87 mg/kg/injection, schedule: Q01DX005 (ip), vehicle: saline 100 % of control | dose: 3.75 mg/kg/injection, schedule: Q01DX005 (ip), vehicle: saline 100 % of control

CC(C)CSc1nc2ccc(NC(=O)/C=C/C(=O)O)cc2s1
inactive: [13] 95 % of control | [14] 95 % of control

C=C(Cl)C(=NC(C)C)Nc1ccccc1C
inactive: dose: 0.79 mg/kg/injection, schedule: Q01DX005 (ip), vehicle: Klucel (hydroxypropylcellulose) (HPC) 112 % of control | dose: 1.56 mg/kg/injection, schedule: Q01DX005 (ip), vehicle: Klucel (hydroxypropylcellulose) (HPC) 100 % of control and 107 % of control | dose: 3.12 mg/kg/injection, schedule: Q01DX005 (ip), vehicle: Klucel (hydroxypropylcellulose) (HPC) 107 % of control and 110 % of control and 115 % of control | [5] 118 % of control and 86 % of control | [6] 102 % of control and 114 % of control

O=C1CCC(Cc2ccc(I)cc2)C(=O)N1 (configuration not stated)
inactive: dose: 100.0 mg/kg/injection, schedule: Q01DX001 (ip), vehicle: saline with Tween-80 101 % of control | dose: 200.0 mg/kg/injection, schedule: Q01DX001 (ip), vehicle: saline with Tween-80 100 % of control | dose: 400.0 mg/kg/injection, schedule: Q01DX001 (ip), vehicle: saline with Tween-80 95 % of control

O=C1c2ccccc2C(=C2c3ccccc3C(=O)c3ccccc32)c2ccccc21
inactive: [13] 99 % of control | [14] 91 % of control | dose: 200.0 mg/kg/injection, schedule: Q01DX009 (ip), vehicle: Klucel (hydroxypropylcellulose) (HPC) 92 % of control | dose: 400.0 mg/kg/injection, schedule: Q01DX009 (ip), vehicle: Klucel (hydroxypropylcellulose) (HPC) 97 % of control

O=C1OC2=C(CCc3nc(-c4ccccc4)sc32)C(N(c2ccccc2)c2ccccc2)C1(Cl)Cl (configuration not stated)
inactive: [15] 96 % of control | [16] 90 % of control | [17] 86 % of control

O=C1CCC2(CC(Br)C(=O)c3ccccc32)C(=O)N1 (configuration not stated)
inactive: [3] 113 % of control | [4] 113 % of control

O=C1CS(=O)(=O)C(c2ccc(F)cc2)N1N1C(=O)CS(=O)(=O)C1c1ccc(F)cc1 (configuration not stated)
inactive: [18] 91 % of control | [19] 93 % of control | [20] 93 % of control

CCCCC(NC(=O)C(CCCC)NC(=O)OCc1ccccc1)C(=O)O (configuration not stated)
inactive: [15] 108 % of control | [16] 93 % of control | [17] 95 % of control

COc1ccc(OCCCBr)c(Br)c1
inactive: [15] 101 % of control | [16] 97 % of control | [17] 104 % of control

O=C(NC(Cc1ccc(O)cc1)C(=O)O)C(=O)c1c[nH]c2ccccc12 (configuration not stated)
inactive: [18] 96 % of control | [19] 97 % of control | [20] 100 % of control

O=C(Nc1ccc(Br)cn1)c1sc2ccccc2c1Cl
inactive: dose: 6.25 mg/kg/injection, schedule: Q01DX009 (ip), vehicle: saline with Tween-80 99 % of control | dose: 12.5 mg/kg/injection, schedule: Q01DX009 (ip), vehicle: saline with Tween-80 98 % of control | dose: 25.0 mg/kg/injection, schedule: Q01DX009 (ip), vehicle: saline with Tween-80 99 % of control | [11] 92 % of control | [12] 87 % of control

[O-]/[N+]1=[N+](\[O-])c2ccccc2CCc2ccccc21
inactive: [18] 100 % of control | [19] 102 % of control | [20] 105 % of control
